Structures can show the parent of a compound that is named as a salt.
Legend:
Skov3-luc cells = assay: Cell viability test, combination study, Skov3-luc; format: cell-based; conditions: Homo sapiens, 72 h, Vincristine 0.25 μM alone, read-out: Ave. Inhibition rate
Protocol: (§1) To evaluate biological activity of a compound in vitro, the cell viability test is applied, in which, IKKβ receptor plays an important role in cell survival and proliferation. Once the IKKβ pathway is blocked by inhibitors, a cell can go through apoptosis or death. The cell viability test provides information on cell survival after treatment with IKK inhibitors.
(§2) BxPC-3 cells (ATCC #CRL-1687; human pancreatic cancer cell line) are grown in Roswell Park Memorial Institute (RPMI) 1640 media (Gibco #A10491-01) supplemented with 10% fetal bovine serum (FBS) (Gibco #10099-141). Skov3-luc cells (ATCC, human ovarian carcinoma cell line) are grown in McCoy's 5a medium (Gibco#16600) supplemented with 10% FBS (Gibco#10099-141). For compound testing, BxPc-3 and Skov3-Luc cells are seeded at 2000 and 5000 cells/well respectively in 100 μL of corresponding media specified above for each cell line in 96-well plates 20 h prior to treatment. Cells are treated with a test compound at eight different concentrations in the presence of 0.5% DMSO for 72 h. Cell death in each well is determined by the addition of 20 μL of the One Solution Reagent (CELLTITER 96® AQueous One Solution Cell Proliferation Assay, Promega #G3580). After 2-4 h of incubation at 37° C., optical densities at 492 nm are measured with a microplate reader Inhibition of cell viability is determined by comparison to the control cells treated in the absence of a test compound.
For the combination study of the compound with other antitumor agents, BxPc-3 and Skov3-Luc cells are seeded at 2000 and 5000 cells/well respectively in 100 μL corresponding media specified above for each cell line in 96-well plates 20 h prior to the treatment. […] Cell death in each well is determined by the addition of 20 μL of the One Solution Reagent (CELLTITER 96® AQueous One Solution Cell Proliferation Assay, Promega #G3580). After 2-4 h of incubation at 37° C., optical densities at 492 nm are measured with a microplate reader Inhibition of cell viability is determined by comparison to the control cells treated in the absence of a test compound. […]

BxPC-3 cells = assay: Cell viability test, combination study, BxPC-3; format: cell-based, human; conditions: for Ave. Inhibition rate: 72 h
Protocol: as §1, §2
For the combination study of the compound with other antitumor agents, BxPc-3 and Skov3-Luc cells are seeded at 2000 and 5000 cells/well respectively in 100 μL corresponding media specified above for each cell line in 96-well plates 20 h prior to the treatment. The cells are treated with the test compound at a number of concentrations for 30 minutes and then exposed to 5 ng/mL TNFα or 0.15-0.6 uM of VCR (vincristine sulfate) for an additional 72 hours. Cell death in each well is determined by the addition of 20 μL of the One Solution Reagent (CELLTITER 96® AQueous One Solution Cell Proliferation Assay, Promega #G3580). After 2-4 h of incubation at 37° C., optical densities at 492 nm are measured with a microplate reader Inhibition of cell viability is determined by comparison to the control cells treated in the absence of a test compound. For example, the results of the combination study with Example 1 are specially detailed in Table 2.

[1] = system: SKOV-3x-FF-luci human ovarian cancer xenograft; assay: Antitumor effect in SKOV-3x-FF-luci xenograft with vincristine (VCR); format: in vivo, Balb/c nu/nu mice; conditions: VCR alone at suboptimal dose, tail vein, once a week
Protocol: In order to expand the anti-tumor spectrum, more combination testing is explored. Based on in vitro synergistic effect of Example 1 and VCR, the compound is tested for its anti-tumor effects in SKOV-3x-FF-luci xenograft in the presence/absence of VCR. The SKOV-3x-FF-luci human ovarian cancer line (ATCC) is cultured in McCoy's 5a medium containing 10% FCS. Female Balb/c nu/nu mice (6-7 weeks old) are peritoneally injected with 0.2 mL of cell suspension containing 2×10^6 cells. Mice are divided into nine groups six days after cell implantation. The test compound is orally administered twice a day at 60 mg/kg for 20 consecutive days or at 90 mg/kg with a 2 days on and 5 days off dosing schedule. VCR at 1 or 0.3 mg/kg is administered via tail vein injection, once a week. In the combination group, VCR is given 1 h after the administration of the test compound. Mice from the control group are administered with the oral vehicle (10% Acacia at pH2.1) and intraperitoneally injected with saline. At the end of the treatment, all mice are euthanized with CO2 and tumors in the peritoneal cavity, diaphragmatic muscle, mesenterium, liver, spleen, and ovaries are harvested with surgery scissors and weighted. […] In the combination group, tumor growth is inhibited by 76% and 74%. Compared with monotherapy, statistical significance is found between combination and monotherapy.

[2] = system: OVA-induced airway inflammation; assay: Ovalbumin (OVA)-induced pulmonary inflammation in mice; format: in vivo, Balb/c mice; conditions: dexamethasone 1 mg/kg (qd)
Protocol: A compound of the present invention is tested in an OVA-induced pulmonary inflammation model in mice essentially as described in a method reported in the literature (Muriel Pichavant, Sho Goya, Eckard Hamelmann, Erwin W. Gelfand, and Dale T. Umetsu. Animal Models of Airway Sensitization. Current Protocols in Immunology. (1999) 15.18.1-15.18.13). Briefly, female Balb/c mice weighing from 18 to 20 g are sensitized by introperitoneal injection of 100 μL of saline containing 20 μg of OVA and 2 mg of aluminum hydroxide on day 1 and 14. On days 28, 29 and 30, mice are challenged once each by aerosolizing 1% ovalbumin (OVA) in phosphate buffered saline (PBS) for 20 minutes with Buxco Mass Dosing System. […] On day 32, animals from each group are anesthetized with 1% of pentobarbital sodium. The thoracic and abdominal cavities are opened and plasma is collected from centrifuged specimens. The trachea is then dissected and transected. Through the insertion of an 18-gauge catheter into the trachea, the lungs are lavaged with a total of 1.5 mL of sterile PBS and then placed into a specimen container. Cell-free BAL supernatants are obtained by centrifugation of BAL fluids. All serum and BAL supernatants are stored at −80° C. until use. Differential cell counts are performed on cytospin preparations of BAL cells for cell counting and cytokine determination. After the collection of BAL supernatants, the lungs of recipient mice are removed en bloc and fixed by an intratracheal instillation of 10% buffered formalin (in PBS). Three to six paraffin sections are obtained from the perihilar regions of recipient lungs, stained with hematoxylin and eosin, and examined under light microscopy for pathological study.

## CC[C@]1(O)C[C@H]2CN(CCc3c([nH]c4ccccc34)[C@@](C(=O)OC)(c3cc4c(cc3OC)N(C=O)[C@H]3[C@@](O)(C(=O)OC)[C@H](OC(C)=O)[C@]5(CC)C=CCN6CC[C@]43[C@@H]65)C2)C1 [Vincristine, vincristine sulfate, reference compound]
Skov3-luc cells
  inhibition at 0.25 µM: 25%
BxPC-3 cells; Homo sapiens, BXPC-3, 72 h, Vincristine 0.15 μM alone, read-out: Ave. Inhibition rate
  inhibition at 0.15 µM: 5.73%
BxPC-3 cells; Vincristine 0.15 μM alone
  Ave. Inhibition rate: 9.48%
[1]
  tumor growth inhibition: 38%

## TNFα
BxPC-3 cells; TNFα 5 ng/mL alone
  Ave. Inhibition rate: 5.73%

## C[C@@H]1C[C@H]2[C@@H]3CCC4=CC(=O)C=C[C@]4(C)[C@@]3(F)[C@@H](O)C[C@]2(C)[C@@]1(O)C(=O)CO [Dexamethasone, reference compound]
[2]
  decrease of IL-13 in BALF: 77%
